The values below come from patent publication US20220235065A1 (Epizyme, Inc., priority 2016, published 2022).

The target of one assay is T1, EHMT1 (Homo sapiens, UniProt Q9H9B1).
T1 sequence (Q9H9B1 1-1298): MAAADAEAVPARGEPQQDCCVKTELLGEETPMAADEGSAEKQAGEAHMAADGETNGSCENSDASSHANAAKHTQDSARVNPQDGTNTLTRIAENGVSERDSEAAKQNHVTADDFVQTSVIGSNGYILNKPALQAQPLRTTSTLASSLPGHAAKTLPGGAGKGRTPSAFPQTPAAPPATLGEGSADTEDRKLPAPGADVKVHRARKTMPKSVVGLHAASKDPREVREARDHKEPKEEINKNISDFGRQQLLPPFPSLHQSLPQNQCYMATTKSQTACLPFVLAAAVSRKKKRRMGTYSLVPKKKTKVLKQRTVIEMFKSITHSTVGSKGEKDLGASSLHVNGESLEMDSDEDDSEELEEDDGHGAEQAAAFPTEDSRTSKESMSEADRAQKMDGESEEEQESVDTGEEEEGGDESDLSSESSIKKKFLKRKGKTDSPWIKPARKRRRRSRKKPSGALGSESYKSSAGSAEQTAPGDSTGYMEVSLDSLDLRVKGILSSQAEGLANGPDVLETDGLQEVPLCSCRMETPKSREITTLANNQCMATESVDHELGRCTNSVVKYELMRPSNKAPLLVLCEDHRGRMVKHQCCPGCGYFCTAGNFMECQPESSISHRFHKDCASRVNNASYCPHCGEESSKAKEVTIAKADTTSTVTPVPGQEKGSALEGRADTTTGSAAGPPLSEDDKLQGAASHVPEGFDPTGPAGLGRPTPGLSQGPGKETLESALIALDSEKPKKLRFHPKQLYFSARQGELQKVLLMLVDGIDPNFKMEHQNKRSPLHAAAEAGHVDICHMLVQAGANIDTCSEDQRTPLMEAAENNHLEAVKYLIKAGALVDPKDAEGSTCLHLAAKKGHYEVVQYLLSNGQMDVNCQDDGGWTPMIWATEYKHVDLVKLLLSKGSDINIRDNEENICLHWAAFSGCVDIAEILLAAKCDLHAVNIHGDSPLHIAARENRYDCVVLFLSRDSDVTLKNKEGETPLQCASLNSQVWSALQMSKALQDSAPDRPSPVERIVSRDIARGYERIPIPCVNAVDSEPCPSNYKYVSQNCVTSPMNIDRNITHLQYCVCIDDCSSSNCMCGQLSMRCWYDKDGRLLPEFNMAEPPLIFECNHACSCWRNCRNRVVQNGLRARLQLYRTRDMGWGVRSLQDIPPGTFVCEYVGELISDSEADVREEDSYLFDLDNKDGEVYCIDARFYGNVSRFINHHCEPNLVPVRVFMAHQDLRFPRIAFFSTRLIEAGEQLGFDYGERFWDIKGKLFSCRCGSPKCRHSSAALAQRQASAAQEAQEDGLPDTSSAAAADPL
Briefly: EHMT1 PEP (EHMT1 peptide enzyme assay). The format is biochemical. The settings on record: peptide substrate enzyme assay.

Assay [1] concerns H3K9me2 in MDA-MB-231 cells. Briefly: MDA-MB-231 H3K9me2 in-cell western assay. It counts as cell-based. The settings on record: Homo sapiens, read-out: EHMT2 ICW (IC50 μM). The method, boiled down:
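MDA-MB-231 cells (3,000/well) exposed to compound for two consecutive 48 h periods at 37 °C, then fixed and stained for H3K9me2, with DRAQ5 as DNA stain and infrared read at 700/800 nm. Percent inhibition was set between DMSO and UNC0638 control wells. IC50 came from triplicate dose–response fits with a four-parameter model, top 100%, bottom 0%.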

By IC50 is commonly meant the point on the concentration scale where inhibition reaches its midpoint. As to `CNCc1c(C)nn(-c2cc(Nc3nc(C)cc(NC)n3)ccc2OC)c1C` [Compound 106], the IC50 (against EHMT1; in assay [1]) was greater than 10 µM throughout.

Turning to `CNc1cc(C)nc(Nc2ccc(OC)c(-n3cc(CN(C)C)cn3)c2)n1` [Compound 109, N2-(3-(4-((dimethylamino)methyl)-1H-pyrazol-1-yl)-4-methoxyphenyl)-N4,6-dimethylpyrimidine-2,4-diamine], the IC50 (against EHMT1; in assay [1]) was less than 0.1 µM in each case.

As for `CNc1cc(C)nc(Nc2ccc(OC)c(-n3ncc4c3CCNC4)c2)n1` [Compound 113, N2-(4-methoxy-3-(4,5,6,7-tetrahydro-1H-pyrazolo[4,3-c]pyridin-1-yl)phenyl)-N4,6-dimethylpyrimidine-2,4-diamine], the IC50 was less than 0.1 µM on EHMT1 and 0.1 to 1 µM in assay [1].

Take `CNc1cc(C2CCOCC2)c2cc(OC)c(-n3cc(CN(C)C)nn3)cc2n1` [Compound 116]: the IC50 (against EHMT1; in assay [1]) was 1 to 10 µM in each case.

As for `CNC(=O)c1cn(-c2cc(Nc3nc(C)cc(NC)n3)ccc2OC)nn1` [Compound 117], the IC50 (against EHMT1; in assay [1]) was greater than 10 µM each time.

As to `CNc1cc(C)nc(Nc2ccc(OC)c(-n3ncc4ncccc43)c2)n1` [Compound 119], the IC50 is 1 to 10 µM against EHMT1 and greater than 10 µM in assay [1].

Take `CNc1cc(C)nc(Nc2ccc(OC)c(-n3cc(CN4CCC4)nn3)c2)n1` [Compound 121]: the IC50 (against EHMT1; in assay [1]) was 0.1 to 1 µM in each case.

Consider `CNCc1cn(-c2cc3nc(NC)cc(C)c3cc2OC)nn1` [Compound 122], for which the IC50 was 0.1 to 1 µM at EHMT1 and 1 to 10 µM in assay [1].

With `CNc1cc(C)c2cc(OC)c(-n3cc(C4CCCN4)nn3)cc2n1` (stereo not shown) [Compound 125], the IC50 at EHMT1 was less than 0.1 µM; in assay [1], 0.1 to 1 µM.

Consider `CNC(=O)c1nn(-c2cc(Nc3nc(C)cc(NC)n3)ccc2OC)cc1C` [Compound 134], for which the IC50 (against EHMT1; in assay [1]) was greater than 10 µM each time.

Regarding `CNc1cc(C)nc(Nc2ccc(OC)c(-n3cc(C4CCCN4C)nn3)c2)n1` (stereo not shown) [Compound 136], the IC50 (against EHMT1; in assay [1]) was 0.1 to 1 µM in each case.

For `CNc1cc(C)nc(Nc2ccc(OC)c(-n3cc(C4CCCN4)nn3)c2)n1` (stereo not shown) [Compound 137, N2-(4-methoxy-3-(4-(pyrrolidin-2-yl)-1H-1,2,3-triazol-1-yl)phenyl)-N4,6-dimethylpyrimidine-2,4-diamine], the IC50 was less than 0.1 µM on EHMT1 and 0.1 to 1 µM in assay [1].

As to `CNc1cc(C)nc(Nc2ccc(OC)c(-n3nnc(C)c3CN(C)C)c2)n1` [Compound 138], the IC50 (against EHMT1; in assay [1]) was greater than 10 µM throughout.

`CNc1cc(C)nc(Nc2ccc(OC)c(-n3nnc(CN(C)C)c3C)c2)n1` [Compound 139]: the IC50 (at EHMT1; in assay [1]) was greater than 10 µM in each case.

Turning to `CCN(CC)Cc1cn(-c2cc(Nc3nc(C)cc(NC)n3)ccc2OC)nn1` [Compound 143], the IC50 lay in the range of 0.1 to 1 µM against EHMT1 and 1 to 10 µM in assay [1].

As to `CNc1cc(C)nc(Nc2ccc(OC)c(-n3cc4cc(C)ccc4n3)c2)n1` [Compound 144], the half-maximal inhibitory concentration (IC50) was 1 to 10 µM against EHMT1 and greater than 10 µM in assay [1].

As to `CNc1cc(C)nc(Nc2ccc(OC)c(-n3cc4cc(C5CC5)ccc4n3)c2)n1` [Compound 145], the IC50 (against EHMT1; in assay [1]) was greater than 10 µM throughout.
